Measurements: the supplement of paper PMC10307832

Assays:
Test in all cases: relative viability (nuclei count vs DMSO), 5 days (fraction); higher = more cells survive
Dinaciclib + Dasatinib = compound: CCc1cnn2c(NCc3ccc[n+]([O-])c3)cc(N3CCCC[C@H]3CCO)nc12 [Dinaciclib] + Cc1nc(Nc2ncc(C(=O)Nc3c(C)cccc3Cl)s2)cc(N2CCN(CCO)CC2)n1 [Dasatinib] (partner 0.075 µM)
Summary of the method: (§1)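 Relative viability is defined as nuclei in treated wells over nuclei in vehicle wells. Duplicate plates were run and medians reported. Lung cancer cell lines in 1536-well plates were dosed by pin tool one day after seeding, with one drug or with a fixed anchor-drug dose plus five library-drug doses (not always all listed) in √10 steps, and nuclei were counted after 5 days.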

Dinaciclib + AZD7762 = compound: CCc1cnn2c(NCc3ccc[n+]([O-])c3)cc(N3CCCC[C@H]3CCO)nc12 [Dinaciclib] + NC(=O)Nc1cc(-c2cccc(F)c2)sc1C(=O)N[C@H]1CCCNC1 [AZD7762] (partner 0.2 µM)
Summary of the method: as §1

Dinaciclib + Tozasertib = compound: CCc1cnn2c(NCc3ccc[n+]([O-])c3)cc(N3CCCC[C@H]3CCO)nc12 [Dinaciclib] + Cc1cc(Nc2cc(N3CCN(C)CC3)nc(Sc3ccc(NC(=O)C4CC4)cc3)n2)n[nH]1 [Tozasertib] (partner 0.1 µM)
Summary of the method: as §1

Dinaciclib + Palbociclib = compound: CCc1cnn2c(NCc3ccc[n+]([O-])c3)cc(N3CCCC[C@H]3CCO)nc12 [Dinaciclib] + CC(=O)c1c(C)c2cnc(Nc3ccc(N4CCNCC4)cn3)nc2n(C2CCCC2)c1=O [Palbociclib] (partner 0.5 µM)
Summary of the method: as §1

Dinaciclib + Trametinib = compound: CCc1cnn2c(NCc3ccc[n+]([O-])c3)cc(N3CCCC[C@H]3CCO)nc12 [Dinaciclib] + CC(=O)Nc1cccc(-n2c(=O)n(C3CC3)c(=O)c3c(Nc4ccc(I)cc4F)n(C)c(=O)c(C)c32)c1 [Trametinib] (partner 0.02 µM)
Summary of the method: as §1

Cell Line | relative viability (Dinaciclib + Dasatinib; first compound 0.009487 µM) | relative viability (Dinaciclib + Dasatinib; first compound 0.03 µM) | relative viability (Dinaciclib + Dasatinib; first compound 0.09487 µM) | relative viability (Dinaciclib + Dasatinib; first compound 0.3 µM) | relative viability (Dinaciclib + AZD7762; first compound 0.009487 µM) | relative viability (Dinaciclib + AZD7762; first compound 0.03 µM) | relative viability (Dinaciclib + AZD7762; first compound 0.09487 µM) | relative viability (Dinaciclib + AZD7762; first compound 0.3 µM) | relative viability (Dinaciclib + Tozasertib; first compound 0.009487 µM) | relative viability (Dinaciclib + Tozasertib; first compound 0.03 µM) | relative viability (Dinaciclib + Tozasertib; first compound 0.09487 µM) | relative viability (Dinaciclib + Tozasertib; first compound 0.3 µM) | relative viability (Dinaciclib + Palbociclib; first compound 0.009487 µM) | relative viability (Dinaciclib + Palbociclib; first compound 0.03 µM) | relative viability (Dinaciclib + Palbociclib; first compound 0.09487 µM) | relative viability (Dinaciclib + Palbociclib; first compound 0.3 µM) | relative viability (Dinaciclib + Trametinib; first compound 0.009487 µM) | relative viability (Dinaciclib + Trametinib; first compound 0.03 µM) | relative viability (Dinaciclib + Trametinib; first compound 0.09487 µM) | relative viability (Dinaciclib + Trametinib; first compound 0.3 µM)
NCI-H647 | 0.104 | 0.0306 | 0.0319 | 0.042 | 0.274 | 0.0458 | 0.0377 | 0.0491 | 0.21 | 0.0983 | 0.0486 | 0.0487 | 0.18 | 0.111 | 0.0539 | 0.0401 | 0.379 | 0.192 | 0.0855 | 0.0533
NCI-H2009 | 0.199 | 0.0887 | 0.072 | 0.0636 | – | – | – | – | 0.599 | 0.231 | 0.112 | 0.106 | 0.243 | 0.0729 | 0.0659 | 0.057 | 0.288 | 0.0748 | 0.0773 | 0.0564
EPLC-272H | 0.381 | 0.089 | 0.0366 | 0.0325 | 0.444 | 0.0986 | 0.0404 | 0.0369 | 0.229 | 0.0357 | 0.0443 | 0.0467 | 0.275 | 0.0744 | 0.0435 | 0.0386 | 0.223 | 0.0654 | 0.0408 | 0.056
NCI-H520 | 0.201 | 0.151 | 0.165 | 0.155 | – | – | – | – | 0.473 | 0.201 | 0.181 | 0.208 | 0.232 | 0.142 | 0.134 | 0.126 | 0.506 | 0.104 | 0.0836 | 0.104
NCI-H2405 | 0.228 | 0.259 | 0.224 | 0.218 | 0.539 | 0.202 | 0.193 | 0.196 | 0.619 | 0.2 | 0.213 | 0.208 | 0.542 | 0.22 | 0.199 | 0.188 | 0.676 | 0.236 | 0.233 | 0.203
NCI-H2085 | 0.223 | 0.184 | 0.218 | 0.229 | 1.14 | 0.391 | 0.211 | 0.221 | 0.802 | 0.373 | 0.3 | 0.308 | 0.514 | 0.503 | 0.22 | 0.211 | 0.439 | 0.259 | 0.187 | 0.183
NCI-H322M | 0.248 | 0.248 | 0.247 | 0.28 | 0.613 | 0.409 | 0.42 | 0.394 | 0.417 | 0.263 | 0.303 | 0.259 | 0.441 | 0.392 | 0.373 | 0.384 | 0.623 | 0.36 | 0.341 | 0.391
NCI-H1944 | 0.267 | 0.117 | 0.117 | 0.13 | 0.745 | 0.0989 | 0.128 | 0.135 | 0.233 | 0.134 | 0.132 | 0.127 | 0.39 | 0.13 | 0.147 | 0.123 | 0.462 | 0.161 | 0.152 | 0.144
LC-2-ad | 0.279 | 0.149 | 0.149 | 0.175 | 0.87 | 0.118 | 0.11 | 0.128 | 0.363 | 0.242 | 0.19 | 0.219 | 0.411 | 0.204 | 0.114 | 0.136 | 0.921 | 0.405 | 0.148 | 0.15
NCI-H358 | 0.182 | 0.0918 | 0.0845 | 0.0762 | 0.548 | 0.16 | 0.151 | 0.188 | 0.103 | 0.0813 | 0.0924 | 0.0857 | 0.142 | 0.095 | 0.0882 | 0.096 | 0.109 | 0.0821 | 0.0838 | 0.102
NCI-H2170 | 0.475 | 0.137 | 0.123 | 0.13 | 0.705 | 0.122 | 0.108 | 0.128 | 0.721 | 0.171 | 0.144 | 0.143 | 0.387 | 0.122 | 0.103 | 0.117 | 0.885 | 0.147 | 0.133 | 0.131
A-427 | 0.486 | 0.111 | 0.0662 | 0.0725 | 0.75 | 0.161 | 0.117 | 0.102 | 0.236 | 0.0917 | 0.0666 | 0.0775 | 0.437 | 0.142 | 0.126 | 0.127 | 0.624 | 0.117 | 0.109 | 0.115
NCI-H1666 | 0.617 | 0.37 | 0.304 | 0.264 | 1.01 | 0.691 | 0.32 | 0.321 | 0.586 | 0.284 | 0.275 | 0.276 | 0.672 | 0.442 | 0.6 | 0.541 | 0.731 | 0.431 | 0.57 | 0.49
LOU-NH91 | 0.564 | 0.287 | 0.243 | 0.179 | 0.7 | 0.296 | 0.252 | 0.272 | 0.656 | 0.305 | 0.178 | 0.174 | 0.508 | 0.307 | 0.268 | 0.273 | 0.756 | 0.405 | 0.281 | 0.264
ABC-1 | 0.466 | 0.133 | 0.137 | 0.0934 | 0.87 | 0.642 | 0.189 | 0.178 | 0.199 | 0.174 | 0.11 | 0.0868 | 0.648 | 0.334 | 0.212 | 0.246 | – | – | – | –
NCI-H1651 | 0.299 | 0.159 | 0.0523 | 0.0403 | 0.637 | 0.65 | 0.205 | 0.0865 | 0.633 | 0.58 | 0.0798 | 0.0626 | 0.519 | 0.383 | 0.148 | 0.0571 | 0.785 | 0.668 | 0.173 | 0.072
